Measured values: patent publication US20200062696A1, “COMPOSITIONS AND METHODS FOR INHIBITING RETICULON 4” (THE REGENTS OF THE UNIVERSITY OF CALIFORNIA, priority 2017, published 2020)

Tests used:
[1] = test system: SW620 colorectal cancer cells; test: Cell proliferation of SW620 cells (Hoescht staining); type: cell-based; settings: Homo sapiens, SW-620, cysteine-reactive fragment 50 μM, 48 h, vs DMSO, average of n = 3/group, read-out: SW620 proliferation Ave
Method: (§1) Cell Culture. SW620 cells were purchased from ATCC. SW620 cells were grown in L-15 media with 10% fetal bovine serum (FBS) in ambient CO2. U2OS cells were grown in DMEM media supplemented with 10% FBS at 37° C. with 5% CO2.
(§2) Survival and Proliferation Assays. Cells were plated the evening before the experiment, and allowed to adhere overnight. For serum-free cell survival assays, cells were plated in media not containing FBS. For cell proliferation assays, cells were plated in regular media. For the chemical genetics screen, cells were treated with either DMSO or the cysteine-reactive fragment for 48 h and cell viability was assessed by Hoescht stain using our previously described methods

[2] = test system: SW620 colorectal cancer cells; test: Serum-free cell survival of SW620 cells (Hoescht staining); type: cell-based; settings: Homo sapiens, SW-620, cysteine-reactive fragment 50 μM, 48 h, vs DMSO, average of n = 3/group, read-out: SW620 survival Ave
Method: as §1, §2

SMILES	activity at 50 µM [1] [%]	viability at 50 µM [2] [%]
C=CC(=O)NCc1ccccc1 [DKM 2-31, N-benzylacrylamide]	116	89
C=CC(=O)NC(C)CCc1ccccc1 (centres unmarked) [DKM 2-32, N-(4-phenylbutan-2-yl)acrylamide]	114	91
C=CC(=O)NCc1ccc(OC)cc1 [DKM 2-33, N-(4-methoxybenzyl)acrylamide]	115	92
C=CC(=O)NCc1ccc(F)cc1 [DKM 2-34, N-(4-fluorobenzyl)acrylamide]	105	78
C=CC(=O)NCc1ccc(-c2ccccc2)cc1 [DKM 2-37, N-([1,1′-biphenyl]-4-ylmethyl)acrylamide]	73	57
C=CC(=O)N1CCN(C(=O)OCC)CC1 [DKM 2-39, Ethyl 4-acryloylpiperazine-1-carboxylate]	110	93
C=CC(=O)Nc1cc(F)ccc1F [DKM 2-40, N-(2,5-difluorophenyl)acrylamide]	98	36
C=CC(=O)NCCc1ccccc1 [DKM 2-42, N-phenethylacrylamide]	137	104
C=CC(=O)NCc1ccc(Br)cc1 [DKM 2-43, N-(4-bromobenzyl)acrylamide]	128	84
C=CC(=O)NCc1cc(C)cc(C)c1 [DKM 2-47, N-(3,5-dimethylbenzyl)acrylamide]	112	78
C=CC(=O)N1CCCC1 [DKM 2-48, 1-(pyrrolidin-1-yl)prop-2-en-1-one]	85	90
C=CC(=O)N1CCOCC1 [DKM 2-49, 1-morpholinoprop-2-en-1-one]	109	80
C=CC(=O)NCCCc1ccccc1 [DKM 2-50, N-(3-phenylpropyl)acrylamide]	130	89
CCOC(=O)N1CCN(C(=O)CCl)CC1 [DKM 2-52, Ethyl 4-(2-chloroacetyl)piperazine-1-carboxylate]	53	92
C=CC(=O)NCCOc1ccccc1OC [DKM 2-58, N-(2-(2-methoxyphenoxy)ethyl)acrylamide]	116	98
C=CC(=O)NCc1ccccc1-c1ccccc1 [DKM 2-59, N-([1,1′-biphenyl]-2-ylmethyl)acrylamide]	74	66
C=CC(=O)NCc1ccccc1Cl [DKM 2-60, N-(2-chlorobenzyl)acrylamide]	100	108
C=CC(=O)NCc1ccccc1[N+](=O)[O-] [DKM 2-62, N-(2-nitrobenzyl)acrylamide]	95	115
O=C(CCl)NCc1ccccc1 [DKM 2-67, N-benzyl-2-chloroacetamide]	73	87
O=C(CCl)N1CCCC1 [DKM 2-71, 2-Chloro-1-(pyrrolidin-1-yl)ethan-1-one]	41	81

SMILES	activity at 50 µM [1] [%]	viability at 50 µM [2] [%]
CCCCCCCCCCNC(=O)CCl [DKM 2-72, 2-Chloro-N-decylacetamide]	100	96
CC(CCc1ccccc1)NC(=O)CCl (centres unmarked) [DKM 2-76, 2-Chloro-N-(4-phenylbutan-2-yl)acetamide]	50	44
O=C(CCl)NCc1ccc(F)cc1 [DKM 2-80, 2-chloro-N-(4-fluorobenzyl)acetamide]	48	47
COc1ccc(CNC(=O)CCl)cc1 [DKM 2-83, 2-chloro-N-(4-methoxybenzyl)acetamide]	48	66
C=CC(=O)Nc1cccc2c1CCC2 [DKM 2-84, N-(2,3-dihydro-1H-inden-4-yl)acrylamide]	84	74
C=CC(=O)Nc1ccc2c(c1)OCO2 [DKM 2-86, N-(benzo[d][1,3]dioxol-5-yl)acrylamide]	102	109
O=C(CCl)Nc1cccc2c1CCC2 [DKM 2-91, 2-chloro-N-(2,3-dihydro-1H-inden-4-yl)acetamide]	59	38
COc1ccc(CNC(=O)CCl)cc1OC [DKM 2-93, 2-chloro-N-(3,4-dimethoxybenzyl)acetamide]	57	74
O=C(CCl)NCc1ccccc1Cl [DKM 2-94, 2-Chloro-N-(2-chlorobenzyl)acetamide]	32	43
C=CC(=O)N(C)Cc1ccccc1 [DKM 2-95, N-benzyl-N-methylacrylamide]	85	52
C=CC(=O)N1CCC(c2ccccc2)CC1 [DKM 2-97, 1-(4-phenylpiperidin-1-yl)prop-2-en-1-one]	96	106
C=CC(=O)Nc1ccc(-c2ccc(C#N)cc2)cc1 [DKM 2-98, N-(4′-cyano-[1,1′-biphenyl]-4-yl)acrylamide]	42	52
C=CC(=O)NCCN1CCOCC1 [DKM 2-100, N-(2-morpholinoethyl)acrylamide]	100	138
C=CC(=O)N1CCc2ccccc21 [DKM 2-101, 1-(indolin-1-yl)prop-2-en-1-one]	96	39
C=CC(=O)NCCCC [DKM 2-102, N-butylacrylamide]	133	124
C=CC(=O)NCCCOC [DKM 2-103, N-(3-methoxypropyl)acrylamide]	112	135
C=CC(=O)NC1CCCCC1 [DKM 2-106, N-cyclohexylacrylamide]	100	144
C=CC(=O)Nc1ccc(Cl)cc1 [DKM 2-107, N-(4-chlorophenyl)acrylamide]	99	86
C=CC(=O)NC1CCCC1 [DKM 2-108, N-cyclopentylacrylamide]	95	61
C=CC(=O)N1CCC(OC)CC1 [DKM 2-109, 1-(4-methoxypiperidin-1-yl)prop-2-en-1-one]	96	140

SMILES	activity at 50 µM [1] [%]	viability at 50 µM [2] [%]
C=CC(=O)NCc1ccc(OC)c(OC)c1 [DKM 2-110, N-(3,4-dimethoxybenzyl)acrylamide]	95	112
C=CC(=O)N1CCN(C(=O)OC(C)(C)C)CC1 [DKM 2-111, tert-butyl 4-acryloylpiperazine-1-carboxylate]	106	133
C=CC(=O)NCCOc1ccccc1 [DKM 2-113, N-(2-phenoxyethyl)acrylamide]	147	75
C=CC(=O)N(C1CCCCC1)C1CCCCC1 [DKM 2-114, N,N-dicyclohexylacrylamide]	111	76
C=CC(=O)NCc1ccc(C(F)(F)F)cc1 [DKM 2-116, N-(4-(trifluoromethyl)benzyl)acrylamide]	90	123
C=CC(=O)N1CCC(C(=O)OCC)CC1 [DKM 2-120, Ethyl 1-acryloylpiperidine-4-carboxylate]	96	102
C=CC(=O)NC(c1ccccc1)c1ccccc1 [DKM 3-4, N-benzhydrylacrylamide]	120	122
C=CC(=O)N1CCN(c2ccccc2)CC1 [DKM 3-5, 1-(4-phenylpiperazin-1-yl)prop-2-en-1-one]	82	59
C=CC(=O)Nc1ccc(C(C)=O)cc1 [DKM 3-7, N-(4-acetylphenyl)acrylamide]	100	51
C=CC(=O)N1CCC(C)CC1 [DKM 3-8, 1-(4-methylpiperidin-1-yl)prop-2-en-1-one]	105	152
C=CC(=O)NCC(OCC)OCC [DKM 3-9, N-(2,2-diethoxyethyl)acrylamide]	100	75
C=CC(=O)Nc1ccc(SC)cc1 [DKM 3-10, N-(4-(methylthio)phenyl)acrylamide]	79	41
C=CC(=O)N1CCC(C#N)CC1 [DKM 3-11, 1-acryloylpiperidine-4-carbonitrile]	118	120
C=CC(=O)NCCCSC [DKM 3-12, N-(3-(methylthio)propyl)acrylamide]	106	129
C=CC(=O)NCC1CCCCC1 [DKM 3-13, N-(cyclohexylmethyl)acrylamide]	94	77
C=CC(=O)Nc1ccc(-c2ccc(CC)cc2)cc1 [DKM 3-16, N-(4′-ethyl-[1,1′-biphenyl]-4-yl)acrylamide]	60	34
C=CC(=O)N1CCN(c2ccc(C(C)=O)cc2)CC1 [DKM 3-29, 1-(4-(4-acetylphenyl)piperazin-1-yl)prop-2-en-1-one]	121	79
C=CC(=O)Nc1ccc(F)cc1 [DKM 3-31, N-(4-fluorophenyl)acrylamide]	99	65
